Assay results as given in PubChem BioAssay (NCI).
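How tested: cells in 96-well plates exposed to compound for 48 hours at five concentrations. The concentration for full growth arrest is given as TGI.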

How the values were obtained:
Assay in all cases: growth of human tumour cells (NCI), 48 h
[1] = tested on: 786-0 renal
[2] = tested on: A498 renal
[3] = tested on: A549 NSCLC
[4] = tested on: ACHN renal
[5] = tested on: BT-549 breast
[6] = tested on: CAKI-1 renal
[7] = tested on: CCRF-CEM leukemia
[8] = tested on: COLO 205 colon
[9] = tested on: EKVX NSCLC
[10] = tested on: HCC-2998 colon
[11] = tested on: HCT-116 colon
[12] = tested on: HCT-15 colon
[13] = tested on: HOP-62 NSCLC
[14] = tested on: HOP-92 NSCLC
[15] = tested on: HS 578T breast
[16] = tested on: HT29 colon
[17] = tested on: IGROV1 ovarian
[18] = tested on: K-562 leukemia
[19] = tested on: KM12 colon
[20] = tested on: LOX IMVI melanoma
[21] = tested on: M14 melanoma
[22] = tested on: MALME-3M melanoma
[23] = tested on: MCF7 breast
[24] = tested on: MDA-MB-231 breast
[25] = tested on: MDA-MB-435
[26] = tested on: MDA-N
[27] = tested on: MOLT-4 leukemia
[28] = tested on: NCI-H226 lung
[29] = tested on: NCI-H23 lung
[30] = tested on: NCI-H460 lung
[31] = tested on: NCI-H522 lung
[32] = tested on: NCI/ADR-RES ovarian
[33] = tested on: OVCAR-3 ovarian
[34] = tested on: OVCAR-4 ovarian
[35] = tested on: OVCAR-5 ovarian
[36] = tested on: OVCAR-8 ovarian
[37] = tested on: PC-3 prostate
[38] = tested on: RPMI-8226 leukemia
[39] = tested on: RXF 393 renal
[40] = tested on: SF-268 CNS
[41] = tested on: SF-295 CNS
[42] = tested on: SF-539 CNS
[43] = tested on: SK-MEL-2 melanoma
[44] = tested on: SK-MEL-5 melanoma
[45] = tested on: SK-OV-3 ovarian
[46] = tested on: SN12C renal
[47] = tested on: SNB-19 CNS
[48] = tested on: SNB-75 CNS
[49] = tested on: SR leukemia
[50] = tested on: SW-620 colon
[51] = tested on: T-47D breast
[52] = tested on: TK-10 renal
[53] = tested on: U251 CNS
[54] = tested on: UACC-257 melanoma
[55] = tested on: UACC-62 melanoma
[56] = tested on: UO-31 renal
[57] = tested on: DU-145 prostate
[58] = tested on: SK-MEL-28 melanoma

SMILES: Cn1c(O)c(C=Nc2ccccc2Cl)c(=O)n(C)c1=O
- TGI [1]: 37.7 µM
- TGI [2]: > 100 µM
- TGI [3]: > 100 µM
- TGI [4]: 92.2 µM
- TGI [5]: > 100 µM
- TGI [6]: > 100 µM
- TGI [7]: 49 µM
- TGI [8]: > 100 µM
- TGI [9]: > 100 µM
- TGI [10]: 34.2 µM
- TGI [11]: 35.5 µM
- TGI [12]: 41.4 µM
- TGI [13]: 52.4 µM
- TGI [14]: > 100 µM
- TGI [15]: > 100 µM
- TGI [16]: > 100 µM
- TGI [17]: > 100 µM
- TGI [18]: > 100 µM
- TGI [19]: > 100 µM
- TGI [20]: 32.2 µM
- TGI [21]: 48.9 µM
- TGI [22]: > 100 µM
- TGI [23]: > 100 µM
- TGI [24]: > 100 µM
- TGI [25]: > 100 µM
- TGI [26]: > 100 µM
- TGI [27]: 61.5 µM
- TGI [28]: > 100 µM
- TGI [29]: > 100 µM
- TGI [30]: 32.8 µM
- TGI [31]: > 100 µM
- TGI [32]: > 100 µM
- TGI [33]: 49.5 µM
- TGI [34]: 98.6 µM
- TGI [35]: 63.2 µM
- TGI [36]: > 100 µM
- TGI [37]: > 100 µM
- TGI [38]: 51.7 µM
- TGI [39]: 45.4 µM
- TGI [40]: > 100 µM
- TGI [41]: 80.5 µM
- TGI [42]: 60.7 µM
- TGI [43]: 41.1 µM
- TGI [44]: > 100 µM
- TGI [45]: > 100 µM
- TGI [46]: > 100 µM
- TGI [47]: 78.4 µM
- TGI [48]: > 100 µM
- TGI [49]: 55.9 µM
- TGI [50]: > 100 µM
- TGI [51]: 65.5 µM
- TGI [52]: > 100 µM
- TGI [53]: > 100 µM
- TGI [54]: > 100 µM
- TGI [55]: > 100 µM
- TGI [56]: > 100 µM

SMILES: C=CC(C)(C)C(=C)C(=O)Nc1ccccc1I
- TGI [1]: > 100 µM
- TGI [2]: > 100 µM
- TGI [3]: > 100 µM
- TGI [4]: > 100 µM
- TGI [6]: > 100 µM
- TGI [7]: > 100 µM
- TGI [8]: > 100 µM
- TGI [57]: > 100 µM
- TGI [9]: > 100 µM
- TGI [10]: > 100 µM
- TGI [11]: > 100 µM
- TGI [12]: > 100 µM
- TGI [13]: > 100 µM
- TGI [14]: > 100 µM
- TGI [15]: > 100 µM
- TGI [16]: > 100 µM
- TGI [18]: > 100 µM
- TGI [19]: > 100 µM
- TGI [20]: > 100 µM
- TGI [21]: > 100 µM
- TGI [23]: > 100 µM
- TGI [24]: > 100 µM
- TGI [25]: > 100 µM
- TGI [26]: > 100 µM
- TGI [28]: > 100 µM
- TGI [29]: > 100 µM
- TGI [30]: > 100 µM
- TGI [32]: > 100 µM
- TGI [33]: > 100 µM
- TGI [34]: > 100 µM
- TGI [35]: > 100 µM
- TGI [36]: > 100 µM
- TGI [37]: > 100 µM
- TGI [38]: > 100 µM
- TGI [39]: > 100 µM
- TGI [40]: > 100 µM
- TGI [41]: > 100 µM
- TGI [43]: > 100 µM
- TGI [58]: > 100 µM
- TGI [44]: > 100 µM
- TGI [45]: > 100 µM
- TGI [46]: > 100 µM
- TGI [47]: > 100 µM
- TGI [48]: > 100 µM
- TGI [49]: > 100 µM
- TGI [50]: > 100 µM
- TGI [51]: > 100 µM
- TGI [53]: > 100 µM
- TGI [54]: > 100 µM
- TGI [55]: > 100 µM
- TGI [56]: > 100 µM
